Series [1] in a line: PAMPA BBB (parallel artificial membrane permeability assay). It is filed as in vitro ADME. The conditions noted are these: pH 7.4, 37 °C, donor 20 µg/mL, read-out: Permeability Coefficients (Pe × 10−6) ± SD. As to the method: BBB permeability of the compounds was investigated by using a PAMPA method (parallel artificial membrane permeability assay). The PAMPA system consisted of a 96-well microfilter plate and a 96-well filter plate and was divided into two chambers: a donor at the bottom and an acceptor at the top, separated by a 120-μm-thick microfilter disc coated with BBB lipid solution (Pion, Inc.). The solutions of each compound were prepared in dimethyl sulfoxide (DMSO) at 4 mg/mL concentration and then diluted with Prisma buffer (pH = 7.4) to obtain the donor drug solution with the final nominal concentration of 20 µg/mL. The donor solutions were placed on the donor plate. Acceptor plate contained Brain Sink Buffer (BSB). The plates were put together and incubated at 37 °C for 180 min in a humidity-saturated atmosphere. The concentrations of the compounds were determined with a UV-reader (Multiskan GO, Thermo Scientific) at 254 nm in the donor and acceptor compartments.
The permeability values (Pe) were calculated by using the following equation:(1) −ln(1−CA/Cequilibrium)/S×(1/VD+1/VA)×t where VD: donor volume, VA: acceptor volume, Cequilibrium: equilibrium concentration Cequilibrium=CD×VD+ CA×VA/VD+VA, CD: donor concentration, CA: acceptor concentration, S: membrane area, and t: incubation time (in seconds). High BBB permeation (CNS+) was expected for compounds with Pe > 5.19, whereas low BBB permeation (CNS-) was expected for compounds with Pe < 2.07 [21].

Series [2] deals with maximal electroshock-induced seizure (MES). On the set-up: method as in PMID 23291122, PMID 25226229, PMID 25090118. The following applies: mice, cited from earlier work.
Series [3] relates to mice. On the set-up: method as in PMID 23291122, PMID 25226229, PMID 25090118. The conditions noted are these: rotarod test (†), the values are: TD50, cited from earlier work.
The target of series [4] is batrachotoxin-binding site on voltage-gated sodium channels. On the set-up: method as in PMID 25226229, PMID 30594731, PMID 28824309. The following applies: read-out: Affinity towards Batrachotoxin-Binding Site on Sodium Channels IC50 ± SEM; cited from earlier work.
Series [5] relates to mice. Set-up: method as in PMID 23291122, PMID 25226229, PMID 25090118; unit not given here. The following applies: chimney test, cited from earlier work.
Series [6] concerns 6 Hz psychomotor seizure model. Set-up: method as in PMID 32253957. The following applies: mice, cited from earlier work.

Where two headings read alike, the source gives them in different places.

Take `CCCC(CCC)C(=O)O` [Valproic acid, reference compound]: the Papp at 180 min, 20 µg/mL in series [1] worked out at 15.4 ± 4.71 ×10⁻⁶ cm/s.

With `CC(C)Cn1c(Cc2cccc(Cl)c2)n[nH]c1=S` [TPR-22, 5-(3-Chlorobenzyl)-4-isobutyl-2,4-dihydro-3H-1,2,4-triazole-3-thione], in series [1], the Papp at 180 min, 20 µg/mL worked out at 34.4 ± 8.3 ×10⁻⁶ cm/s. In addition, the “Anticonvulsant Activity in MES Test ED50 ± S.E.” value is 130.4 ± 17.6 mg/kg in series [2] (pretreatment time 15 min), 130.4 ± 17.6 mg/kg in series [2] (pretreatment time 30 min), 159.9 ± 21.9 mg/kg in series [2] (pretreatment time 60 min) and 195.7 ± 21.5 mg/kg in series [2] (pretreatment time 120 min). The Neurotoxicity in Chimney or Rotarod (†) Tests in Mice with mice [3] (pretreatment time 15 min) was 306 ± 19.8 mg/kg; in the series with mice [3] (pretreatment time 30 min), 314 ± 22 mg/kg; in the series on mice [3] (pretreatment time 60 min), 326 ± 23.1 mg/kg; in the series on mice [3] (pretreatment time 120 min), 330 ± 24.2 mg/kg. Besides, in series [4], the 50% inhibitory concentration (IC50) is 18.9 ± 1.2 µM.

As to `CCCCCCn1c(Cc2cccc(Cl)c2)n[nH]c1=S` [TP-427, 5-(3-Chlorobenzyl)-4-hexyl-2,4-dihydro-3H-1,2,4-triazole-3-thione], the Papp at 180 min, 20 µg/mL in series [1] was determined as 477 ± 39.6 ×10⁻⁶ cm/s. Further, the “Anticonvulsant Activity in MES Test ED50 ± S.E.” value in series [2] (pretreatment time 15 min) is listed as 72.1 ± 7.0 mg/kg; in series [2] (pretreatment time 30 min) it was 74.5 ± 8.1 mg/kg; in series [2] (pretreatment time 60 min), 83.6 ± 3.8 mg/kg; in series [2] (pretreatment time 120 min), 97.9 ± 10.9 mg/kg. The “Neurotoxicity in Chimney or Rotarod (†) Tests in Mice” value in the series with mice [5] (pretreatment time 15 min) is listed as more than 1000; in the series on mice [5] (pretreatment time 30 min), more than 1000; in the series with mice [5] (pretreatment time 60 min), 540.7 ± 20.9; in the series with mice [5] (pretreatment time 120 min) it was 548.5 ± 21.4. For the same molecule, in series [4], the half-inhibitory concentration (IC50) was 6.17 ± 1.43 µM. Further, the “Anticonvulsant Activity in 6 Hz Test ED50 ± SEM” value in series [6] (pretreatment time 15 min) is recorded as 40.9 ± 6.4 mg/kg; in series [6] (pretreatment time 30 min), 46.6 ± 8.2 mg/kg; in series [6] (pretreatment time 60 min) it was 51.6 ± 6.9 mg/kg; in series [6] (pretreatment time 120 min), 64.9 ± 5.6 mg/kg.

Take `Cc1ccc(-n2c(-c3cccc(Cl)c3)n[nH]c2=S)cc1` [TP-10, 5-(3-Chlorophenyl)-4-(4-methylphenyl)-2,4-dihydro-3H-1,2,4-triazole-3-thione]: the Papp at 180 min, 20 µg/mL in series [1] is 40.2 ± 5.1 ×10⁻⁶ cm/s. For the same molecule, the “Anticonvulsant Activity in MES Test ED50 ± S.E.” value in series [2] (pretreatment time 15 min) was 57.0 ± 9.4 mg/kg; in series [2] (pretreatment time 30 min) it was 74.5 ± 8.1 mg/kg; in series [2] (pretreatment time 60 min) it was 187.1 ± 18.8 mg/kg; in series [2] (pretreatment time 120 min) it was 281.4 ± 13.6 mg/kg. In addition, the “Neurotoxicity in Chimney or Rotarod (†) Tests in Mice” value in the series on mice [5] (pretreatment time 15 min) is recorded as 338.1 ± 12.0; in the series on mice [5] (pretreatment time 30 min), 338.1 ± 14.7; in the series on mice [5] (pretreatment time 60 min), 333.4 ± 18.6; with mice [5] (pretreatment time 120 min) it was 395.1 ± 25.2. Also, the “Anticonvulsant Activity in 6 Hz Test ED50 ± SEM” value in series [6] (pretreatment time 15 min) is reported as 62.6 ± 13.2 mg/kg; in series [6] (pretreatment time 30 min), 61.1 ± 9.7 mg/kg; in series [6] (pretreatment time 60 min), 169.7 ± 18.5 mg/kg; in series [6] (pretreatment time 120 min), 167.6 ± 17.4 mg/kg.

Source of the values: paper PMC8037910, “Effect of Chronic Administration of 5-(3-chlorophenyl)-4-Hexyl-2,4 -Dihydro-3H-1,2,4-Triazole-3-Thione (TP-315)—A New Anticonvulsant Drug Candidate—On Living Organisms” (International Journal of Molecular Sciences, 2021).
